Read-outs that look alike come from different tables or passages of the source.
Columns and labels:
[1] = assay type: in vivo, rat (male Wistar)
[2] = for Change in salicylic acid clearance from solutions applied to the dermis: FIG. 1
Experimental: In vivo dermal penetration and local tissue uptake studies: The rats were lightly anaesthetised by pentobarbitone (35mg/kg) and their body temperature maintained at 37° C. by placing them on a heating pad. The hair from the 4 cm^2 dorsum area were removed by electric clippers and the epidermis removed by means of an electrodermatome set at a thickness of 80 microns. A dermal absorption cell was adhered to the exposed rat dermis and warmed to 37° C. by means of an external heating device.
Solution of solute spiked with corresponding labelled substance and containing an appropriate concentration of phenylephrine, previously warmed to 37° C., was introduced into the dermal absorption cell and the solution stirred by a glass stirrer driven by an external motor. Samples were removed from the donor cell at predetermined times and placed in preweighed scintillation vials. The glass cell was removed from the rat skin at the end of two hour dermal perfusion study and the application area wiped dry with blotting paper. A blood sample was then taken from the tail vein and the animals sacrificed with overdoes of anaesthetic ether. Immediately thereafter the tissues below the treated site i.e. skin, subcutaneous tissue, fascia, muscle lining or superficial muscle, muscle, fat pad and deep muscle were removed from dissection and placed in preweighed scintillation vials. Similarly, the tissues below the contralateral side were also removed. Tissue and plasma samples were stored at -20° C. prior to analysis. In vivo dermal penetration and local tissue uptake studies (sacrificed animals): The rats were initially anaesthetised by intraperitoneal injection of pentobarbitone (35 mg/kg) and after removing epidermis as described above, were sacrificed by overdose of ether. Dermal perfusion and tissue uptake studies were then conducted in postmortem rats.
The phenylephrine induced reduction in blood flow to dermis was determined by monitoring the dermal clearance of tritiated water in presence of phenylephrine.
Aqueous samples removed from the glass cells in in vivo dermal perfusion studies were directly mixed with 5 ml of liquid scintillation cocktail BCS and counted on liquid scintillation counter. The tissue samples were solubilised with 50 μl of water and 1 ml of tissue solubilizer NCS at 50° C. for 6-8 hrs.

[3] = topical ointment; cited from earlier work
[4] = postmortem conditions; cited from earlier work
[5] = assay type: in vivo, rat (male Wistar); remark: listed apart in the source
Experimental: Male Wistar rats (348±20 g) were anaesthetised i.p. with sodium pentobarbitone (60 mg/kg) and laid abdomen down on a heating pad (37° C.) with the left hindleg extending over the edge of the pad. The left hind foot was cleaned with cotton wool swabs soaked in a dilute solution of ethanol then dried. The foot was then immersed, to a standard position marked on the ankle joint, in 2 ml of vehicle solution (30% propylene glycol/30% ethanol/40% water) containing ^3 H-water (Sigma, Australia) with (n=3) or without (n=3) 2% GTN (David Bull Laboratories Pty Ltd. Melbourne, Australia). Solutions were left in contact with the foot for 2 hours with 10 μl samples taken at time zero and at the end of the absorption period. After 2 hrs a blood sample was taken from the tail vein and animals were sacrificed by cervical dislocation whilst still anaesthetised. The rat paws were cleaned as previously to remove any excess radiolabelled solute from the surface. Skin from the upper part of the foot, the foot pad and foot muscles were dissected from each treated and contralateral paw, placed into preweighed scintillation vials, solubilised with NCS (Amersham, Australia) and counted for radioactivity, along with the 10 μl solution samples, following the addition of the appropriate scintillation cocktail. Statistical analysis was performed using a Student unpaired t-test, with significance taken at the P<0.05 level.

[6] = reductions in blood flow; cited from earlier work
[7] = parameters: species or system rat (male Wistar)
Experimental: The following experiment was designed to determine the effect of changes in tissue blood flow (perfusion) on the transdermal absorption and subsequent tissue distribution of 3H-water.
Hindlimb perfusions: Briefly, rats (malc Wistar 280-340 g) were anaesthetised with sodium pentobarbitone 60 mg/ig i.p., the abdomen opened and the right femoral artery cannulated (PESO) via the aorta. A second cannula (PE205) was placed in the dorsal vena cava, and the hindlimb perfused in a humidicrib at 37° C. with oxygenated (95%O2 /5%CO2) Krebs Heinseleit Ringer (mM: NaCl 118, KCl 4.74, KH2 PO4 1.18, MgSO4.7H2 O 0 1.18 CaCl2.2H2 O 2.54, NaHCO3 25, Glucose 11.1;pH 7.4, 37° C.), containing 4% bovine serum albumin (Fraction V, Sigma). Once the perfusions were established rats were sacrificed by creating a pneumothorax and turned over so that cells could be attached to the outer thigh of the perfused limb. The pressure of the inflowing perfusate was continuously monitored, mean pressures were in the order of 30 and 40 mmHg at 4 and 8ml/min respectively. The perfused preparation is stable for up to 2 hrs, as validated by testing inflowing and outflowing perfusate samples for pH, dissolved oxygen concentrations, together with various enzyme and ion concentrations. The perfusion flow rates were controlled by a graduated peristaltic pump, and were measured at the beginning and end of each experiment.
Glass diffusion cells (8 cm high, 1.8 cm internal diameter, 2.54 cm^2 skin application area), were fixed to the skin on the outer thigh of the perfused hindlimb with adhesive. The application area on the hindlimb was first depilated with commercial Nair™ hair-removal cream and the epidermis removed using a dermatome before the perfusion was established. Solutions (2 ml) containing trace amounts of the radiolabelled ^3 H-water (Sigma Chemical Co, Australia), in phosphate buffered saline (pH 7.4, 37° C.) were introduced into the cell at time 0. Absorption studies were conducted for 90 minutes, after which time the cell contents were drawn out with a pipette, the cell removed and the tissues from beneath the position of the cell sequentially dissected into preweighed vials for weight determination, solubilisation and liquid scintillation counting.

[8] = nitroglycerine; cited from earlier work
[9] = 30° C.; Michaels et al.; cited from earlier work
[10] = 2% GTN vs vehicle, 2 hours, FIG. 5

For `O=C(O)c1ccccc1O` [salicylic acid], the “Plasma levels and levels in contralateral tissues” value ([1]; PE concentration of 0.1%, FIG. 2a-h) was “sudden increase”, the “Concentration in underlying tissues (fraction of initial concentration)” value ([1]; PE concentrations above 0.01%, FIG. 2a-g) was “approach a constant value” and the “Concentration in underlying tissues (fraction of initial concentration)” value ([1]; PE up to 0.01%, underlying tissues except for fat pad, FIG. 2a-g) was “increase with increase in concentration of PE up to 0.01%”. The “Systemic salicylic acid blood levels” value ([1]; increasing phenylephrine concentration, FIG. 2h) was “gradual decline”, the “Concentration in contralateral tissues” value ([1]; increasing phenylephrine concentrations, FIG. 2a-g) was “decreased with increasing phenylephrine concentrations” and the “Concentration in deep muscle” value ([1]; phenylephrine 0.01%) was “maximum concentrations”. For the same compound, the “Concentration in deep muscle” value ([1]; phenylephrine above 0.01%) was “decreases”, the “Change in salicylic acid clearance from solutions applied to the dermis” value ([2]; increasing phenylephrine concentration up to 0.05%) was “decreased up to phenylephrine concentration of 0.05%” and the “Change in salicylic acid clearance from solutions applied to the dermis” value ([2]; phenylephrine 0.1%) was “no further decrease”.
For `CCCCC[C@H](O)/C=C/[C@@H]1[C@H]2C/C(=C/CCCC(=O)O)O[C@H]2C[C@H]1O` [Prostaglandin I2 (PGI2)], the “Effectiveness in the treatment of skin ulcers” value [3] is listed as “effective in the treatment of skin ulcers”.
For `CN(Cc1cnc2nc(N)nc(N)c2n1)c1ccc(C(=O)N[C@@H](CCC(=O)O)C(=O)O)cc1` [methotrexate], the “Disappearance from dermal and subcutaneous sites” value [4] is given as “reduced”.
With `O` [Water] the “Concentration of water in upper skin and muscle tissues of the contralateral limb” value ([5]; 2% GTN vs vehicle) was “significant increase”, the “Concentration in the outer skin or foot pad of the rat paw” value [5, 10] was “no significant change” and the “Concentration of water in the deeper foot muscles” value [5, 10] was “highly significant increase”. For the same compound, the “Plasma concentration of water” value ([5]; 2% GTN vs vehicle, 2 hours, P=0.046, FIG. 5) was “significant increase”, the “Underlying tissue concentration of topically coadministered 3H-water” value ([5]; topical GTN, anaesthetised animals) was “significantly increase” and the “Concentration in plasma and contralateral tissues” value ([1]; in the presence of phenylephrine) was “decreased”. The “Concentration in tissues below the application area” value ([1]; in the presence of phenylephrine, FIGS. 3 & 4) was “increased”, the “Absorption from dermal and subcutaneous sites” value [6] was “significant reductions in absorption” and the “Dependence of tissue concentrations on perfusion flow rate” value ([7]; 4 vs 8 ml/min) was “great dependence on perfusion flow rate”. For the same compound, the “Tissue concentration of water in dermis (2 mm) and superficial muscle layer (5 mm)” value ([7]; 8 ml/min vs 4 ml/min, p<0.05) was “statistically lower”, the “Tissue concentration of water in the deeper muscle layers” value ([7]; lower flow rate (4 ml/min)) was “higher concentrations” and the “Increase in clearance from the dermal cell” value ([7]; perfusion flow rate raised from 4 ml/min to 8 ml/min, p<0.05, 90 minutes, pH 7.4, 37° C.) was 31%. For the same compound, the “Dermal clearance (Mean ± S.D.)” value ([2]; Control (no phenylephrine), anaesthetised rats, 37° C., two hour study) was 1.10 ± 0.24 mL/h, the “Dermal clearance (Mean ± S.D.)” value ([2]; Phenylephrine (1:5000)) was 0.40 ± 0.02 mL/h and the “Dermal clearance (Mean ± S.D.)” value ([2]; Phenylephrine (1:20000)) was 0.53 ± 0.05 mL/h. For the same compound, the “Dermal clearance (Mean ± S.D.)” value ([2]; Sacrificed animals) was 0.36 ± 0.02 mL/h.
In the case of `O=[N+]([O-])OCC(CO[N+](=O)[O-])O[N+](=O)[O-]` [nitroglycerine], the Water solubility [8] is given as 1300 µg/mL.
In the case of `CN[C@@H](C)[C@H](O)c1ccccc1` [ephedrine], the “Maximum flux through skin” value [9] is listed as 250-400 μg/cm^2 per hr.
